Publication PMC5587747, “A natural chalcone induces apoptosis in lung cancer cells: 3D-QSAR, docking and an in vivo/vitro assay” (Scientific Reports, 2017)
≈ marks a conversion by molar mass, not a printed value. Where two headings read alike, the source gives them in different places.

Columns and labels:
[1] = tested on: H292 cells; experiment: MTT cytotoxicity assay, H292 cells; format: cell-based, human; conditions: Homo sapiens, NCI-H292; for IC50: H292 cells
Description: (§1) The cytotoxicities of the tested flavonoids were assayed in ten human lung cancer cell lines (A549, H226, H358, H522, H292, H1944, H460, H1792, SW1573, and Calu-1) using MTT reduction assay. Cisplatin (DDP) was selected as a positive control. Compounds 1–37 were dissolved in DMSO to obtain a clear solution of 1 M, which was diluted to 400 mM, 200 mM, 100 mM, 75 mM, 50 mM, 37.5 mM, 25 mM, 10 mM and 1 mM respectively as stock solutions. The DMSO concentration in the medium was kept below 0.10%. Moreover, the stability of tested compounds in experimental buffer was confirmed at 24 h and 48 h respectively by means of HPLC analysis. Then the human lung cancer cells were placed in 96-well culture plates (5 × 10^4 cells/well) and incubated for 24 h. Then, the cells were pretreated with different concentrations of test samples (gradient concentrations 1.0, 10.0, 25.0, 37.5, 50, 75, 100, 200, 400, 1000 μM for compounds 1–37 and DDP) for 48 h. And cell growth was measured by MTT assays. The cytotoxicities against the lung cancer cells were determined systematically and expressed as IC50 value.

[2] = tested on: H522; experiment: MTT cytotoxicity assay, H522 cells; format: cell-based, human; conditions: Homo sapiens, NCI-H522, lonchocarpin 100 μM, read-out: inhibition rate (IR %)
Description: as §1

[3] = tested on: H226; experiment: MTT cytotoxicity assay, H226 cells; format: cell-based, human; conditions: Homo sapiens, NCI-H226, lonchocarpin 100 μM, read-out: inhibition rate (IR %)
Description: as §1

[4] = tested on: H358; experiment: MTT cytotoxicity assay, H358 cells; format: cell-based, human; conditions: Homo sapiens, NCI-H358, lonchocarpin 100 μM, read-out: inhibition rate (IR %)
Description: as §1

[5] = tested on: A549; experiment: MTT cytotoxicity assay, A549 cells; format: cell-based, human; conditions: Homo sapiens, lonchocarpin 100 μM, read-out: inhibition rate (IR %)
Description: as §1

[6] = tested on: Calu-1; experiment: MTT cytotoxicity assay, Calu-1 cells; format: cell-based, human; conditions: Homo sapiens, lonchocarpin 100 μM, read-out: inhibition rate (IR %)
Description: as §1

[7] = tested on: SW1573; experiment: MTT cytotoxicity assay, SW1573 cells; format: cell-based, human; conditions: Homo sapiens, lonchocarpin 100 μM, read-out: inhibition rate (IR %)
Description: as §1

[8] = tested on: H1792; experiment: MTT cytotoxicity assay, H1792 cells; format: cell-based, human; conditions: Homo sapiens, NCI-H1792, lonchocarpin 100 μM, read-out: inhibition rate (IR %)
Description: as §1

[9] = tested on: H460; experiment: MTT cytotoxicity assay, H460 cells; format: cell-based, human; conditions: Homo sapiens, NCI-H460, lonchocarpin 100 μM, read-out: inhibition rate (IR %)
Description: as §1

[10] = tested on: H1944; experiment: MTT cytotoxicity assay, H1944 cells; format: cell-based, human; conditions: Homo sapiens, NCI-H1944, lonchocarpin 100 μM, read-out: inhibition rate (IR %)
Description: as §1

[11] = tested on: Vero cells; experiment: Cytotoxicity in Vero cells; format: cell-based; conditions: at 1000 μM
[12] = tested on: H292 cells; experiment: Annexin V/PI apoptosis assay by flow cytometry; format: cell-based, human; conditions: H292, 20 μM
Description: Cell apoptosis was evaluated by Annexin V/PI staining assay and analyzed using an apoptosis detection kit (Keygen, Nanjing, China)[37]. Briefly, H292 cells were cultured at the density of 1 × 10^6 cells/well. […] Both attached and floating cells were harvested at the arranged time point, and washed twice with ice-cold PBS, then resuspended in 100 μL binding buffer with Annexin V and PI for 15 min at 37 °C in darkness. Finally, the treated cells were analyzed by flow cytometry (Becton Dickinson, Franklin Lakes, NJ, USA) and Cell Quest software. The apoptosis rate was given by the following formula:
Apoptosis rate % = (number of apoptotic cells)/(number of total cells observed) × 100%.

[13] = tested on: Bcl-2, Bax, procaspase-3, cleaved caspase-3, cytochrome c, caspase-9 in H292 cells; experiment: Western blotting of apoptosis-related proteins; format: cell-based, human; conditions: H292, 20 μM
Description: Western blotting was performed according to the method described in previous research. […] Then, the cells were harvested and then washed with PBS and lysed in a radio immune-precipitation assay buffer for 30 min. BCA protein assay kit (Byontime, Beijing, China) was used for determination of the total protein contents. And the protein samples were dissolved and seperated on 10% SDS-PAGE gels. After that the proteins were transferred to PVDF (polyvinylidene fluoride) (Bio-Rad, Hercules, CA) membranes and incubated sequentially with blocking buffer, primary antibodies, and horseradish peroxidase-conjugated secondary antibodies.

[14] = tested on: S180-bearing mice; experiment: In vivo antitumor activity in S180 implanted mice; conditions: 12 days; for Tumor weight/g: mean ± SE
Description: The animal experiments were carried out according to the National Institute of Health Guide for the Care and Use of Laboratory Animals. And the use of experimental animals was approved by the Animal Ethics Committee of Shenyang Pharmaceutical University. Male Kunming mice, were housed in separate cages under standard conditions (20–24 °C), relative humidity (55% ± 5%) and a 12 h light/12 h dark cycle, and allowed to acclimatize for 3 days prior to the start of experiment. Cultured S180 cells were harvested and washed with sterilized PBS (pH 7.2) three times and resuspended at a density of 6 × 10^6 cells/ml. Mice received subcutaneous implants of 0.2 mL/mouse on the right flank by means of hypodermic injection. Then the mice were divided randomly into 5 groups, including model, positive control and treatment groups with 10 mice in each group after inoculation for 24 h. […] Both groups received oral administrations via an intubation needle every day. […] The weight of the mice was recorded every day throughout the experiment. Finally, the mice were sacrificed by cervical dislocation just 2 h after the last administration. Then the tumor and spleen tissues were harvested and weighed immediately. After that the in vivo tumor inhibition ratio was calculated as: Inhibition ratio (%) = 100((A−B)/A), in which A represents the average tumor weight of the control group and B is recorded as the tumor weight of the administration group. Then, the spleen index was recorded using the following formula:
Spleen index = the final weight of spleen (mg)/the final average body weight (g) without tumor.

[15] = tested on: CEM leukaemic cell line; design: method as in PMID 12601679; conditions: cited from earlier work

CC1(C)C=Cc2c(ccc(C(=O)/C=C/c3ccccc3)c2O)O1 [Compound 34, lonchocarpin]
inhibition at 100 µM ([1]; H292, lonchocarpin 100 μM, read-out: inhibition rate (IR %)): 97.5% | IC50 ([1]; MTT, 48 h, read-out: IC50): 10 µM | IC50 ([1]; Table S2, read-out: pIC50 (converted)): 10 µM | inhibition at 100 µM [2]: 63% | inhibition at 100 µM [3]: 62% | inhibition at 100 µM [4]: 51.3% | inhibition at 100 µM [5]: 42.3% | inhibition at 100 µM [6]: 23.8% | inhibition at 100 µM [7]: 92.3% | inhibition at 100 µM [8]: 46.7% | inhibition at 100 µM [9]: 76.3% | inhibition at 100 µM [10]: 69.2% | cytotoxicity in Vero cells ([11]; listed as Lonchocarpin): no cytotoxicity | cytotoxicity in Vero cells ([11]; listed as lonchocarpin): no toxicity | early apoptosis (lower right quadrant) ([12]; 12 h): 7.2% | late apoptosis (upper right quadrant) ([12]; 12 h): 3.9% | apoptosis ([12]; 24 h): about 41.1% | apoptosis ([12]; 48 h): ~47.9% | Bax protein expression [13]: up-regulation | caspase-9 [13]: activation | cytochrome c protein expression [13]: up-regulation | procaspase-3 protein expression [13]: reduction | Bcl-2 protein expression ([13]; 24 h and 48 h): obviously down-regulated | cleaved caspase-3 protein expression ([13]; 48 h): significantly increased | Body weight/g After experiment ([14]; 25 mg/kg oral daily): 26.45 ± 0.68 g | Body weight/g Before experiment ([14]; 25 mg/kg oral daily): 39.19 ± 2.15 g | Inhibitory rate (%) ([14]; 25 mg/kg oral daily): 57.94% | Spleen index ([14]; 25 mg/kg oral daily): 3.08 mg/g | Tumor weight/g ([14]; 25 mg/kg oral daily): 3.39 ± 0.69 g | Body weight/g After experiment ([14]; 50 mg/kg oral daily): 28.99 ± 0.47 g | Body weight/g Before experiment ([14]; 50 mg/kg oral daily): 36.48 ± 1.38 g | Inhibitory rate (%) ([14]; 50 mg/kg oral daily): 63.40% | Spleen index ([14]; 50 mg/kg oral daily): 3.17 mg/g | Tumor weight/g ([14]; 50 mg/kg oral daily): 2.95 ± 0.66 g | Body weight/g After experiment ([14]; 100 mg/kg oral daily): 28.21 ± 1.98 g | Body weight/g Before experiment ([14]; 100 mg/kg oral daily): 38.71 ± 2.20 g | Inhibitory rate (%) ([14]; 100 mg/kg oral daily): 72.51% | Spleen index ([14]; 100 mg/kg oral daily): 3.30 mg/g | Tumor weight/g ([14]; 100 mg/kg oral daily): 2.21 ± 0.72 g | IC50 [15]: 10.4 µg/mL (≈ 33.9 µM)
